Laboratory results taken from patent publication US7132420B2, “Aspartic protease inhibitors” (The United States of America as represented by the …, priority 1999, dated 2006).
Where two headings read alike, the source gives them in different places.

Tests used:
normal cells = assay: toxicity against normal cells (IC50); type: cell-based
Text: (§1) This example illustrates the HIV-1 protease inhibition activity (Ki), HIV-1 antiviral data (EC50), and the toxicity against normal cells (IC50), for particular compounds of formula (I). The HIV protease assay was done according to the protocol described in Kageyama et al, Antimicrob. Agents Chemother., 37, 272 (1993). The HIV antiviral assay was done according to the protocol described in Weislow et al., J. National Cancer Inst. 81, 577 (1989).

[1] = Rat P.O. pharmacokinetics and oral bioavailability; type: in vivo, rats; settings: for Cmax / Rat P.O. tmax: P.O. about 37 mg/kg, PEG 300 vehicle; for Cmax when administered orally, in words: oral; for Rat P.O. % F (%): AUC p.o. relative to AUC iv
Protocol: (§2) This example illustrates the oral bioavailability of various compounds of the present invention. […] Drug concentrations were measured by centrifuging plasma samples, extracting the supernatants with tert-butyl methyl ether, and analyzing the extracts by HPLC. Oral bioavailability (% F) was calculated on the basis of the ratio of the amount of drug absorbed systemically from oral administration (AUC p.o.) relative to the amount of systemic drug obtained from intravenous administration (AUC iv).

[2] = IV-PO crossover oral bioavailability studies; type: in vivo; settings: two Sprague-Dawley rats; IV 7 and 3 mg/kg (DMSO), oral 22 and 50 mg/kg (PEG300)
Protocol: Compound (19) was tested in IV-PO crossover studies in two Sprague-Dawley rats. For the IV portion of the studies, compound (19) was given at doses of 7 and 3 mg/kg, as a short infusion (30–60 seconds) via a jugular vein catheter using a vehicle of DMSO and a dose volume of 1 ml/kg. Heparinized blood samples were collected at close intervals through 3 hours, the plasma was separated, and plasma concentrations of compound (19) were determined by HPLC. One to two weeks later, the same rats were given doses of 22 and 50 mg/kg by gastric intubation. The vehicle was PEG300 and the dose volume was 10 ml/kg. Blood samples were collected at regular intervals through 24 hours, and analyzed as above. The oral bioavailability in both of these studies was 100%. Based on the excellent oral bioavailability of compound (19), it is expected that compound (19) will be an effective inhibitor of systemic aspartic protease when administered orally. Other compounds of the present invention also are expected to have-good oral bioavailability.

HIV-1 protease = HIV-1 protease (Human immunodeficiency virus type 1 group M subtype B, UniProt P04585); assay: HIV protease assay (Ki); type: biochemical
Text: as §1
(§3) The HIV protease assay was done according to the protocol described in Example 35. The plasmepsin II assay was done according to the protocol used in Silva et al., Proc. Nat. Acad. Sci. USA, 93, pp. 10034–10039, September 1996 (Biochemstry). The cathepsin D assay was done according to the protocol described in Gulnik et al., FEBS Letters, 413, 379–384 (1997). The compounds illustrated in Table 2 are of the general formula (II), as described in Example 35.

HIV-1 = assay: HIV antiviral assay (EC50); type: cell-based
Text: The HIV protease assay was done according to the protocol described in Kageyama et al, Antimicrob. Agents Chemother., 37, 272 (1993). The HIV antiviral assay was done according to the protocol described in Weislow et al., J. National Cancer Inst. 81, 577 (1989).

Rat IV pharmacokinetics = type: in vivo, rats; settings: IV about 5 mg/kg
Protocol: as §2

[3] = target: 84V mutant HIV-1 protease (Human immunodeficiency virus type 1 group M subtype B, UniProt P04585, I572V); assay: HIV protease assay, 84V mutant (Ki); type: biochemical
Text: as §1

cathepsin D = cathepsin D (Homo sapiens, UniProt P07339); assay: cathepsin D assay (Ki); type: biochemical; settings: for Ki: Table 2, read-out: Cath D Ki
Sequence of cathepsin D (P07339 65-412): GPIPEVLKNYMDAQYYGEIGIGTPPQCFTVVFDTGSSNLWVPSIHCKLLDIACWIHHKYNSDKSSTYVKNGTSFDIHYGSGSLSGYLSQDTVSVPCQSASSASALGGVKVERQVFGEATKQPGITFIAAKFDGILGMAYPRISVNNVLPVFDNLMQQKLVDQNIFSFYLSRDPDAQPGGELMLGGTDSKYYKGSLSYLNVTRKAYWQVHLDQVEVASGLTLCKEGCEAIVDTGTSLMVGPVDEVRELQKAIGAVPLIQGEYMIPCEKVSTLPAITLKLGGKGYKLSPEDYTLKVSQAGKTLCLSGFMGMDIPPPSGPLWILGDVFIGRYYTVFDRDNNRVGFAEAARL
Text: as §3

plasmepsin II = plasmepsin II (Plasmodium falciparum, UniProt P46925); assay: biochemical; type: biochemical; settings: for Ki: Table 2, read-out: Pls II Ki
Sequence of plasmepsin II (P46925 125-453): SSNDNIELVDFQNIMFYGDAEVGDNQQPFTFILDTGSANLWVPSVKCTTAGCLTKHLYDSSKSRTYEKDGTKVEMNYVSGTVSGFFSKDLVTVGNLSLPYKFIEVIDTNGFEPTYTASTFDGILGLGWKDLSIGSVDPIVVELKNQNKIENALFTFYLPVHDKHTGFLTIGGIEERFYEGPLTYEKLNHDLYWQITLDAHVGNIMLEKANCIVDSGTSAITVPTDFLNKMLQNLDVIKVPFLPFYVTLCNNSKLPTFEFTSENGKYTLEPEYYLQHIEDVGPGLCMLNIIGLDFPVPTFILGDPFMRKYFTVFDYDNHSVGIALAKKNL
Text: as §3

[4] = target: 82F/84V mutant HIV-1 protease (Human immunodeficiency virus type 1 group M subtype B, UniProt P04585, I572V/V570F); type: biochemical
Text: as §1

[5] = target: 32I mutant HIV-1 protease (Human immunodeficiency virus type 1 group M subtype B, UniProt P04585, V520I); assay: HIV protease assay, 32I mutant (Ki); type: biochemical; settings: Table 1; read-out: 321 Ki
Text: as §1

[6] = comparison of Table 2 Ki values

Compound	IC50 (normal cells; Table 1) [nM]	Ki (HIV-1 protease; Table 1, read-out: HIV-1 Ki) [nM]	EC50 (HIV-1; Table 1) [nM]	IC50 (normal cells; Table 2) [nM]	Ki (plasmepsin II) [nM]	Ki (HIV-1 protease; Table 2, read-out: HIV-1 Ki) [nM]	EC50 (HIV-1; Table 2) [nM]	Ki ([4]; Table 1) [nM]	also measured
CC(C)C[C@@H](C[C@H](O)[C@H](Cc1ccccc1)NC(=O)OCc1cncs1)NC(=O)[C@H](C(C)C)N1CCCNC1=O [Compound (19), (2S,3S,5S)-5-[N-[[3-methyl-2S-(2-oxo-tetrahydropyrimidin-1-yl)]butyryl]amino]-2-[N-[(thiazol-5-yl-methoxy)carbonyl]amino]-3-hydroxy-7-methyl-1-phenyloctane]	> 100000	0.07 ± 0.01	500	–	–	–	–	–	Cmax [1]: 24800 nM; Rat P.O. tmax [1]: 120 to 360 min; Cmax when administered orally, in words [1]: micromolar; oral bioavailability [2]: 100%; Ki (HIV-1 protease; Table 3, read-out: HIV-1 Ki): 0.07 nM; EC50 (HIV-1; Table 3): 500 nM; Rat IV CL (Rat IV pharmacokinetics): 25 mL/min/kg; Rat IV t1/2 (Rat IV pharmacokinetics): 18 min
CC(C)C[C@@H](C[C@H](O)[C@H](Cc1ccccc1)NC(=O)c1ccccc1NC(=O)OCc1ccccn1)NC(=O)c1ccccc1NC(=O)OCc1ccccn1 [(21)]	> 20000	0.14	127	–	–	–	–	–	Ki ([3]; Table 1, in nM): 2.7 nM
Cc1cccc(C)c1OCC(=O)N[C@@H](Cc1ccccc1)[C@@H](O)C[C@H](CC(C)C)NC(=O)c1ccc(N)cc1 [(31), (2S,3S,5S)-5-[N-(4-aminobenzoyl)amino]-2-[N-[2-(2,6-dimethylphenoxy)acetyl]amino]-3-hydroxy-7-methyl-1-phenyloctane]	> 100000	–	–	> 100000	30	–	–	–	inhibitory activity against cathepsin D, in words (cathepsin D): generally potent; inhibitory activity against plasmepsin II, in words (plasmepsin II): generally potent; Ki (HIV-1 protease): 1.2 nM; inhibitory activity against HIV-1 protease, in words (HIV-1 protease): generally potent; EC50 (HIV-1; Human immunodeficiency virus 1, Table 1): 2000 nM
Cc1cccc(C)c1OCC(=O)N[C@@H](Cc1ccccc1)[C@@H](O)C[C@H](CC(C)C)NC(=O)NC(C)(C)C [(28), (2S,3S,5S)-5-[N-[[N′-(tert-butyl)amino]carbonyl]amino]-2-[N-[2-(2,6-dimethylphenoxy)acetyl]amino]-3-hydroxy-7-methyl-1-phenyloctane]	–	0.1	2000	> 100000	107	0.1	2000	–	inhibitory activity against cathepsin D, in words (cathepsin D): generally potent; inhibitory activity against plasmepsin II, in words (plasmepsin II): generally potent; inhibitory activity against HIV-1 protease, in words (HIV-1 protease): generally potent
Cc1cccc(C)c1OCC(=O)N[C@@H](Cc1ccccc1)[C@@H](O)C[C@H](Cc1ccccc1)NC(=O)[C@H](C(C)C)N1CCCNC1=O [(24), reference compound]	> 100000	0.013	41	> 100000	3500	0.012	41	–	Ki (cathepsin D): 1960 nM
Cc1cccc(C)c1OCC(=O)N[C@@H](Cc1ccccc1)[C@@H](O)C[C@H](CC(C)C)NC(=O)[C@@H](NC(=O)OCc1ccccn1)C(C)C [(30), (2S,3S,5S)-2-[N-[2-(2,6-dimethylphenoxy)acetyl]amino]-5-[N-[N′-(pyridine-2-methoxycarbonyl)valinyl]amino]-3-hydroxy-7-methyl-1-phenyloctane]	> 100000	0.017	83	> 100000	2350	0.017	83	0.41	Ki (cathepsin D): 3300 nM
CCOC(=O)N[C@H](C(=O)N[C@@H](CC(C)C)C[C@H](O)[C@H](Cc1ccccc1)NC(=O)COc1c(C)cccc1C)C(C)C [(46)]	> 100000	0.054	160	–	–	–	–	0.671	–
CC(C)C[C@@H](C[C@H](O)[C@H](Cc1ccccc1)NC(=O)O[C@H]1CCOC1)NC(=O)[C@H](C(C)C)N1CCCNC1=O [(35), (2S,3S,5S)-2-[N-(3S-terahydrofuranyloxycarbonyl]amino]-5-[N-[[3-methyl-2S-(2-oxo-tetrahydropyrimidin-1-yl)]butyryl]amino]-3-hydroxy-7-methyl-1-phenyloctane]	> 100000	0.094 ± 0.024	700	–	–	–	–	–	Ki ([4]; Table 1, in nM): 3.2 nM
Cc1cccc(C)c1OCC(=O)N[C@@H](Cc1ccccc1)[C@@H](O)C[C@H](CC(C)C)NC(=O)[C@@H](NC(=O)N1CCOCC1)C(C)C [(45), (2S,3S,5S)-2-[N-[2-(2,6-dimethylphenoxy)acetyl]amino]-5-[N-[[N′-(morpholin-4)carbonyl]valinyl]amino]-3-hydroxy-7-methyl-1-phenyloctane]	> 100000	0.05	170	–	–	–	–	0.437	Rat P.O. % F (%) [1]: 29%; Cmax [1]: 573 nM; Rat P.O. tmax [1]: 16 min; Ki (HIV-1 protease; Table 3, read-out: HIV-1 Ki): 0.05 nM; EC50 (HIV-1; Table 3): 170 nM; Rat IV CL (Rat IV pharmacokinetics): 67.5 mL/min/kg; Rat IV t1/2 (Rat IV pharmacokinetics): 20 min
Cc1ccccc1C(=O)N[C@@H](Cc1ccccc1)[C@@H](O)C[C@H](CC(C)C)NC(=O)OC(C)(C)C [(38)]	–	–	–	–	–	–	–	–	Ki (HIV-1 protease; Table 1, in nM, read-out: HIV-1 Ki): 2.1 nM; Ki ([3]; Table 1, in nM): 12 nM
CC(C)[C@H](NC(=O)OCc1ccccn1)C(=O)N[C@@H](Cc1ccccc1)C[C@H](O)[C@H](Cc1ccccc1)NC(=O)[C@@H](NC(=O)OCc1ccccn1)C(C)C [(22), reference compound]	–	0.015	–	–	–	–	–	0.271	Ki ([3]; Table 1): 0.21 nM
Cc1cccc(C)c1OCC(=O)N[C@@H](Cc1ccccc1)[C@@H](O)C[C@H](CC(C)C)NC(=O)O[C@H]1CCOC1 [(26)]	–	0.06	700	> 100000	55	0.06	700	–	Ki (cathepsin D): 3.5 nM; Ki ([4]; Table 1, in nM): 2.7 nM
Cc1cccc(C)c1OCC(=O)N[C@@H](CC(C)C)C[C@H](O)[C@H](Cc1ccccc1)NC(=O)[C@H](C(C)C)N1CCCNC1=O [(43)]	> 100000	0.176	540	–	–	–	–	–	Cmax [1]: 2100 nM; Rat P.O. tmax [1]: 120 min; Cmax when administered orally, in words [1]: micromolar; Ki (HIV-1 protease; Table 3, read-out: HIV-1 Ki): 0.176 nM; EC50 (HIV-1; Table 3): 540 nM; Rat IV CL (Rat IV pharmacokinetics): 36.6 mL/min/kg; Rat IV t1/2 (Rat IV pharmacokinetics): 28 min
Cc1cccc(C)c1OCC(=O)N[C@@H](Cc1ccccc1)[C@@H](O)C[C@H](CC(C)C)NC(=O)[C@H](C(C)C)N1CCCNC1=O [(16)]	–	0.007	23	> 100000	357	0.007	23	0.137	Ki (cathepsin D): 3300 nM; Rat P.O. % F (%) [1]: 1%; Cmax [1]: 269 nM; Rat P.O. tmax [1]: 10 to 15 min; potency relative to compound (24) against plasmepsin II (plasmepsin II; [6]): about ten-fold more potent than compound (24); inhibitory activity against HIV-1 protease, in words (HIV-1 protease): excellent potency; Ki (HIV-1 protease; Table 3, read-out: HIV-1 Ki): 0.008 nM; potency relative to compound (24) against HIV-1 protease (HIV-1 protease; [6]): about ten-fold more potent than compound (24); EC50 (HIV-1; Table 3): 23 nM; Ki [5]: 0.031 nM; Ki ([3]; Table 1): 0.091 nM; Rat IV CL (Rat IV pharmacokinetics): 9.8 mL/min/kg; Rat IV t1/2 (Rat IV pharmacokinetics): 27 min
